Assay results reported in patent publication US20250281540A1, “Methods for Haematopoietic Stem Cell Transplantation” (Ospedale San Raffaele S.r.l., priority 2022, published 2025).

Legend:
[1] = system: WBC, LSK and SLAM HSC; test: Mobilization protocols in Cd40Ig^−/− mice (PB and BM counts); type: in vivo
Excerpt: To investigate the therapeutic potential of M-HSCT, we took advantage of Cd40Ig^−/− mice, which faithfully recapitulate the phenotype of the human primary combined immunodeficiency Hyper IgM Syndrome 1 (HIGM-1; Renshaw, B. R., et al. (1994). J Exp Medicine 180, 1889-1900). Because G-CSF treatment may have a detrimental effect on the BM niche, we investigated the efficiency of mobilization protocols differing for its presence or absence, the G-CSF dose and the duration and combination with other drugs (FIG. 2A).
(§1) Blood samples were also analysed with the hemocytometer Sysmex KX-21N (Block scientific, Sysmex corporation) to quantify absolute numbers.
Different protocols were tested in Cd40Ig^−/− mice: (i) s.c. pump delivering 250 μg/kg/day of G-CSF for 7 days (G7); (ii) s.c. pump delivering 250 μg/kg/day of G-CSF for 7 days, with i.p. injections of AMD3100 (5 mg/kg/day) on day 6 and 7 (G7A); (iii) s.c. pump delivering 250 μg/kg/day of G-CSF for 7 days, with i.p. injections of AMD3100 (5 mg/kg/day) and BIO5192 (1 mg/kg/day) on day 6 and 7 (G7AB); (iv) s.c. pump delivering 125 μg/kg/day of G-CSF for 7 days, with i.p. injections of AMD3100 (5 mg/kg/day) and BIO5192 (1 mg/kg/day) on day 6 and 7 (G7AB-H); (v) G-CSF delivered by i.p. injections (125 μg/kg) every 12 hours for four days, with AMD3100 s.c. injections (5 mg/kg) 14 hours after the last dose of G-CSF (G5A); (vi) G-CSF delivered by i.p. injections (125 μg/kg) every 12 hours for four days, with AMD3100 (5 mg/kg) and BIO5192 (1 mg/kg) s.c. injections 14 hours after the last dose of G-CSF (G5AB); (vii) s.c. pump delivering 250 μg/kg/day of G-CSF for 3 days, with i.p. injections of AMD3100 (5 mg/kg/day) and BIO5192 (1 mg/kg/day) on day 6 and 7 (G3AB); (viii) s.c. pump delivering 125 μg/kg/day of G-CSF for 3 days, with i.p. injections of AMD3100 (5 mg/kg/day) and BIO5192 (1 mg/kg/day) on day 6 and 7 (G3AB-H); and (ix) AMD3100 (5 mg/kg/day) and BIO5192 (1 mg/kg/day) i.p. injected for three days.
Bone marrow vacancy and estimated chimerism were calculated based on the following formulas in Cd40Ig^−/− mice (summarized in table below): • To determine the total number of SLAM HSC per mouse at steady state (FIG. 2G, left panel), lower limbs (which account for 20% of the total BM) were collected in a defined volume and counted, paralleled with their characterization through FACS. We found 2500 SLAM HSC/lower limbs, therefore reaching a total of 12,500 SLAM HSC/mouse (2500*100/20). This number is in accordance with other published papers (Chen, J., et al. (2008). Experimental hematology, 36(10), 1236-1243; Karpova, D., et al. (2017). Blood, 129(21), 2939-2949; and Singh, P., et al. (2020). Stem cells (Dayton, Ohio), 38(7), 849-859). • To determine the total number of SLAM HSC that egressed from the BM post-G7AB mobilization, we examined the BM of mobilized mice. 1100 SLAM HSC were recovered in the lower limbs, reaching a total of 5500 SLAM HSC in the BM of mobilized mice. Therefore, to determine the number of SLAM HSC egressed, the number of SLAM HSC present post-mobilization was subtracted from the total number of SLAM HSC present in the steady state mouse, leading to an assessment of 7000 SLAM HSC egressing from the BM (12500-5500). • The mobilized SLAM HSC/mL was calculated based on the bleeding performed at the peak of mobilization in mobilized mice (FIG. 2G, right panel). The blood was analyzed through hematocytometer (WBC/mL) and FACS staining (% subpopulation). […]

[2] = system: GFP+ cells within the hCD45+ population; test: M-HSCT in hematochimeric mice with drug-resistant CXCR4 variant; AMD3465 protocol; type: in vivo, NSGW41 or NBSGW mice
Excerpt: FIG. 12. […] NSGW41 or NBSGW mice were humanized with human mobilized peripheral blood CD34+ cells until 10% chimerism was achieved. Mice were then mobilized with G-CSF for 7 days through subcutaneous pump implantations and with two injections of AMD3100 and BIO5192 at day 6 and 7. For the second transplant, GFP lentiviral vector-transduced cells from the same donor used to humanize the mice were electroporated with either CXCR4 wild type or CXCR4^D262N variant. The donor cells were then transplanted either at 3 h or immediately after the last injection of AMD3100. • (B) Human chimerism over time after mobilization, expressed as % of human CD45+ cells present in peripheral blood (right panel), and exchange efficiency (left panel) expressed as % of GFP+ cells within the hCD45+ population. CXCR4 Var=CXCR4 D262N. • (C) Mobilization efficiency of the standard protocol (G7AB) or the modified protocol with AMD3465 (G7AB*) measured as white blood cell count (WBC, left panel), and human CD34+CD38− cells (right panel). • (D) Human chimerism over time after mobilization, expressed as % of hCD45+ cells in peripheral blood (right panel), and exchange efficiency (left panel) expressed as % of GFP+ cells within the hCD45+ population. […]

[3] = system: WBC, LSK and SLAM HSC; test: Mobilization of WBC, LSK and SLAM HSC into the circulation of C57BL/6J CD45.2 mice; type: in vivo; settings: addition of BIO5192 to G7A (G7AB)
Procedure: We tested two mobilization regimens in mice, one modeling a clinically approved protocol using G-CSF and AMD3100 (G7A), and the other one also comprising BIO5192 (G7AB). C57BL/6J CD45.2 mice were treated with G-CSF using a subcutaneous pump for a week combined with either AMD3100, or the combination of AMD3100 and BIO5192, delivered intraperitoneally at day 6 and 7 (FIG. 1A; FIG. 6B).
The addition of BIO5192 led to a higher mobilization of WBC, LSK and SLAM HSC, leading to an additional 2-fold increase of SLAM HSC over G7A levels.
as §1

[4] = system: CD45.1 Lin^− donor cells; test: M-HSCT: donor CD45.1 chimerism after mobilization of CD45.2 recipients; type: in vivo, C57BL/6J CD45.2 mice; settings: addition of BIO5192 to the G-CSF/AMD3100 protocol (G7AB); 2×10^6 CD45.1 Lin^− cells; PB
Excerpt: To test if these levels of mobilization, and the subsequent BM niche availability, were sufficient to allow engraftment of donor cells, 2×10^6 CD45.1 lineage negative (Lin^−) cells, purified from the BM, were transplanted into CD45.2 congenic recipients after the last injection of AMD3100 or AMD3100/BIO5192 (FIG. 1A, C; FIG. 6D).
Donor mice between 6 and 10 weeks of age were euthanized by CO2, and BM cells were retrieved from femurs, tibias, and humeri. HSPCs were purified by Lin− selection using the mouse Lineage Cell Depletion Kit (Miltenyi Biotec) according to the manufacturer's instructions. Cells were then cultured (for 2 hours or overnight) in serum-free StemSpan medium (StemCell Technologies) containing penicillin, streptomycin, glutamine, and a combination of mouse cytokines (20 ng/ml IL-3, 100 ng/ml SCF, 100 ng/ml Flt-3L, 50 ng/ml TPO all from PeproTech), at a concentration of 2-5×10^6 cells.ml^−1. Purified Lin^− cells were transplanted at a total dose of 2×10^6 cells/mouse into 8 to 12-week-old mobilized mice, three hours after the last injection of AMD3100 and/or Bio5192. Serial collections of blood from the retro-orbital vein were performed to monitor the hematological parameters and donor cell engraftment. At the end of the experiment, BM, thymus and spleen, and lymph nodes were harvested and analyzed.

[5] = target: VLA-4 (Homo sapiens, UniProt P05556+P13612); settings: VLA-4 versus α4β7 integrin; Ramirez et al. 2009; cited from earlier work
[6] = system: MMP9; test: ELISA on BM extracellular extracts, MMP9; type: in vivo, Cd40Ig^−/− mice
Procedure: (§2) For ELISA performed on BM matrix, femurs and tibias were repeatedly flushed with 1 mL of cold PBS. Cells were pelleted by centrifugation at 300 g for 10 minutes at 4° C., supernatant was then collected and stored at −80° C. ELISA has been performed following manufacturer instruction after a 1:100 dilution with 1× Assay Diluent for MMP9 (Thermo Scientific) or on undiluted BM matrix for CXCL12 (Sigma-Aldrich).

[7] = system: CXCL12; test: ELISA on BM extracellular extracts, CXCL12; type: in vivo, Cd40Ig^−/− mice
Procedure: as §2

Chain of VLA-4 (P13612 34-1032): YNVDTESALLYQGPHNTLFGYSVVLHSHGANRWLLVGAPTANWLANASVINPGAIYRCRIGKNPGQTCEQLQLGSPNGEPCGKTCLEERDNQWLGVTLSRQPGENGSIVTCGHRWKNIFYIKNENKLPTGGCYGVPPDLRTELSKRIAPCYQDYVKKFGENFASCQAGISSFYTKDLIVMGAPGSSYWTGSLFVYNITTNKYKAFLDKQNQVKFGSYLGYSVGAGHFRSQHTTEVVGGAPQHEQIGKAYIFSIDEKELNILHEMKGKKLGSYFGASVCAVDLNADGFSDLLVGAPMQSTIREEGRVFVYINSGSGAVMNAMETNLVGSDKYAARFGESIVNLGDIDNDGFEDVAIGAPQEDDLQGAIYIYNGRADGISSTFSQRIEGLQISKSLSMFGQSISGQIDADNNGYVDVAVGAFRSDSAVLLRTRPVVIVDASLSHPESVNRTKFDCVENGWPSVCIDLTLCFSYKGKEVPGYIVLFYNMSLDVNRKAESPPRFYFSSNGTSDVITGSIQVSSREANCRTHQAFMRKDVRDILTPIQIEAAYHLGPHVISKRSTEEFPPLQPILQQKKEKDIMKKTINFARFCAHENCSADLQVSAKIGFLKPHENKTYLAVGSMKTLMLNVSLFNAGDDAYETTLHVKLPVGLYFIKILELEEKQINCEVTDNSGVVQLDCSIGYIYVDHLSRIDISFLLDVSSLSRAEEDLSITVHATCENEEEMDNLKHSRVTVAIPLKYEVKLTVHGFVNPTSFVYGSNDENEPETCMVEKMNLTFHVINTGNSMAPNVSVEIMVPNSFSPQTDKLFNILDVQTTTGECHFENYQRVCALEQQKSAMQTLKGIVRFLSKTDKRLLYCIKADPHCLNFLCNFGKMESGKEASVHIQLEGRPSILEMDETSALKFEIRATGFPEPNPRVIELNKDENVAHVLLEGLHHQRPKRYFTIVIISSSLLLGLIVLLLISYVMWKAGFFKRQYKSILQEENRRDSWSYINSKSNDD
Chain of VLA-4 (P05556 21-798): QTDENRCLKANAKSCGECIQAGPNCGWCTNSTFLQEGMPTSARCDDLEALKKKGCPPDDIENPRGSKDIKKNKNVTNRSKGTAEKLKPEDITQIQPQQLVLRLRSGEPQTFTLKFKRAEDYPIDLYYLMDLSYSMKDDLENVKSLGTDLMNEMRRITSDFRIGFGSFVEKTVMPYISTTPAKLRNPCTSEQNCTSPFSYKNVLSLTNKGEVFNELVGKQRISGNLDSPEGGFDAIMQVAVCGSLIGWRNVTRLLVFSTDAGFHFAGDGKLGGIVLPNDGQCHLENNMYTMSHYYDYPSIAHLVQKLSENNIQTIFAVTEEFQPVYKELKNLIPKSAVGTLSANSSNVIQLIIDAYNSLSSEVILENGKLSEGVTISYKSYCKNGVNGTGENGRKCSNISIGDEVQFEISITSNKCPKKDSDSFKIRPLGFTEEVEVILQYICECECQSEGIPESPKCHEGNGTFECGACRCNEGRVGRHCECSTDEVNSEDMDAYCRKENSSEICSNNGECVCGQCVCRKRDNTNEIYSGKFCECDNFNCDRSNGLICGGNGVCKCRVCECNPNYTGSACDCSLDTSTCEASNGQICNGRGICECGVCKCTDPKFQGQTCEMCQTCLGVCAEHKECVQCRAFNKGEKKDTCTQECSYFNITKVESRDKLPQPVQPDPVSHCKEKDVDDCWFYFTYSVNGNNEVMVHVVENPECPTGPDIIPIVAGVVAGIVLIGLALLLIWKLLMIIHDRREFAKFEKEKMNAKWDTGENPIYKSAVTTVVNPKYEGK

Molecule: c1cc(CN2CCCNCCNCCCNCC2)ccc1CN1CCCNCCNCCCNCC1 [AMD3100, plerixafor]
- increase of mobilized LSK ([1]; addition of AMD3100 to the standard G-CSF treatment): 3 fold
- time of peak of mobilization of WBC, LSK and SLAM HSC ([1]; post injection, PB analysis): around 3 hours

Molecule: c1ccc(CNCc2ccc(CN3CCCNCCNCCCNCC3)cc2)nc1 [AMD3465]
- exchange efficiency ([2]; AMD3100 or AMD3465, donor cells transplanted at the peak of mobilization): remained unchanged
- mobilization efficiency ([2]; AMD3465 compared to AMD3100 in the standard protocol with G-CSF and BIO5192): not affected

Molecule: Cc1ccccc1NC(=O)Nc1ccc(CC(=O)N(C)[C@@H](CC(C)C)C(=O)NCC[C@H](NC(=O)[C@@H]2CCCN2S(=O)(=O)c2cc(Cl)cc(Cl)c2)C(=O)O)cc1 [BIO5192]
- additional increase of SLAM HSC over G7A levels [3]: 2 fold
- donor chimerism, median [4]: 30%
- further increase of mobilized LSK ([1]; BIO5192 added to G-CSF and AMD3100): 5 fold
- affinity for VLA-4 higher than for the related α4β7 integrin [5]: 250- to 1000 fold

B1: G-CSF: granulocyte colony-stimulating factor (Lenograstim) delivered by osmotic pump (protein, UniProt P09919 31-207, looked up)
Granulocyte …: TPLGPASSLPQSFLLKCLEQVRKIQGDGAALQEKLVSECATYKLCHPEELVLLGHSLGIPWAPLSSCPSQALQLAGCLSQLHSGLFLYQGLLQALEGISPELGPTLDTLQLDVADFATTIWQQMEELGMAPALQPTQGAMPAFASAFQRRAGGVLVASHLQSFLEVSYRVLRHLAQP
- blood neutrophils and monocytes counts ([1]; PB after mobilization protocols): highly increased
- level of CXCR4 expression on circulating SLAM HSC ([1]; with versus without G-CSF mobilization): lower
- MMP9 in the BM stroma [6]: increased
- CXCL12 in the BM stroma [7]: decreased
